{"source": "patent US20240228659A1", "about": "“NEW METHOD TO IMPROVE NK CELLS CYTOTOXICITY” (INSERM (INSTITUT NATIONAL DE LA SANTÉ ET DE LA RECHERCHE …, priority 2021, published 2024)", "format_in_all_cases": "in vivo, mouse", "key": {"[1]": {"tested_on": "CD45+NKp46+CD3− NK cells", "test": "tumor NK cell infiltration, flow cytometry", "details": "FIG. 3B; PBS control 0.88±0.2%", "source_text": "FIG. 3. 13-cis-Retinoic acid combined with mAb 8B6 increases PD-1+NK cell tumor infiltration. (A) Dot plots histograms showing the gating strategy used for flow cytometric identification of CD45+NKP46+CD3− NK cells in tumor cells. (B) Fold increase of total count of NK cells in tumor cells were achieved by flow cytometry of cells gated, as indicated. […] (C) Percentage of PD-1+NK cells in tumor cells from the indicated group.\nLiver metastasis were dissociated with the mouse tumor dissociation kit and the gentle MACS dissociator (Miltenyi) according to the manufacturer's instructions. Single cell suspensions were obtained by passing through a 70 μm pore-size cell MACS SmartStrainer (Miltenyi). […]\n(§1) For flow cytometry analysis, cells were first incubated with a mAb specific for mouse CD16/CD32 to prevent nonspecific binding of primary antibodies against FcγR, and then, were labeled with specific conjugated mAbs. […] Quantification of total cell numbers by flow cytometry was performed done using fluorescent beads (C36950, Thermo Fisher, Waltham, MA, USA). Flow cytometric analysis were performed using an BD FACSCanto II (BD Bioscience) and data were analyzed using FlowJo software (Flowjo LLC, Oregon, OR, USA). The fold increase of tumor NK cell infiltration was calculated by dividing the number of NK cell infiltrated of each condition by the mean of the number of NK cell."}, "[2]": {"tested_on": "NXS2 cells", "test": "murine NXS2 neuroblastoma experimental liver metastasis model in A/J mice", "details": "FIG. 1B; 8 mice/group; day 27 after i.v. NXS2 inoculation; 8B6 25 μg i.v. twice weekly x3 weeks; 13-cis-RA 10 mg/kg per os", "protocol": "FIG. 1. 13-cis-Retinoic acid enhances anti-neuroblastoma activity of anti-O-acetylated GD2 ganglioside in vivo. (A) Mice (8 animal/group) were inoculated with 2.5×10^5 NXS2 cells by i.v. injections on day 0. Antibody 8B6 treatment was performed on days 3, 7, 10, 14, 17, and 21 (cumulative dose=150 μg). 13-cis-retinoic acid treatment was given at 10 mg/kg, per os, five times weekly, day 17 to 21. Mice were euthanized 27 days post-tumor cell inoculation. (B) Anti-tumor efficacy was evaluated by determining the number of liver metastasis. Mean liver metastasis number±SEM of each treatment group, as depicted (** p<0.01; Mann-Whitney test). (C) The mice body weight was recorded for each treatment group, as indicated. Mean weight (mean±SEM, n=8) of mice on day 0 was defined as 100% weight. Weight in each group remained stable for the period of the treatment.\nFIG. 4. […] (B) Anti-tumor efficacy was evaluated by determining the liver metastasis on fresh specimen. […] (C) The mice body weight was recorded for each treatment group, as indicated. […]\nThe anti-neuroblastoma efficacy of mAb 8B6 and chemotherapeutic treatments was determined in the murine NXS2 neuroblastoma experimental liver metastasis model in A/J mice, previously described (28). […] Mice were euthanized on day 27 post-tumor challenge, and anti-tumor efficacy was evaluated by determining the number of liver metastasis."}, "[3]": {"tested_on": "PD-L1", "test": "PD-L1 tumor cell surface expression, flow cytometry of dissociated liver metastasis", "details": "FIG. 2B; residual liver metastasis; untreated mice 31.3±7.19%", "protocol": "FIG. 2. Effect of retinoic acid alone or in combination with 8B6 therapy on O-acetyl-GD2 and PD-L1 expression in vivo. Tumor cells harvested from the indicated group were stained with either OAcGD2-specific mAb (A) or PD-L1-specific mAb (B). (A) Flow cytometry analysis was performed with single cell suspension obtained from the liver metastasis harvested from mice in FIG. 1 to assess the OAcGD2 expression, as indicated. […] The level of OAcGD2 expression remains stable after treatments (ns, not significant; p>0.5). (B) Single cell suspension from (A) were also tested for PD-L1 tumor cell surface expression, as indicated. The left panel indicates the percentage of PD-L1 positive tumor cells. […]\nas §1"}}}
{"smiles": "CC1=C(/C=C/C(C)=C/C=C/C(C)=C\\C(=O)O)C(C)(C)CCC1", "note": "[13-cis-RA, 13-cis-retinoic acid]", "values": [{"measurement": "intratumoral CD45+NKp46+CD3− NK cells", "setting": "[1]", "result": "2.49±0.29", "unit": "%"}, {"measurement": "number of liver metastasis (mean±SEM)", "setting": "[2]", "result": "14.40±0.98"}, {"measurement": "percentage of PD-L1+ tumor cells", "setting": "[3]", "result": "39.45±9.76", "unit": "%"}]}
